According to patent US11846639B2, “Ligand discovery for T cell receptors” (priority 2014, dated 2023):
Residues, ends and D or L forms follow the SMILES beside them.

Tests used:
[1] = molecular target: 5cc7 TCR; experiment: Surface plasmon resonance affinity of peptide-I-Ek for 5cc7 TCR; assay type: binding, murine; conditions: SPR, peptide exchanged into soluble I-Ek
Description: Refolded Murine TCRs for crystallography and affinity measurements. Refolded 2B4, 226, and 5cc7 were created essentially as described. For […] and 5c2 crystal structures, the 5c1 and 5c2 peptides were fused to the N-terminus of 5cc7β via a 10-amino acid GlySer linker. TCRs were purified via size exclusion chromatography and assayed via SDS-PAGE to ensure 1:1 α:β stoichiometry. If there were an excess of TCRβ, ββ homodimer was purified away from αβ heterodimer via ion exchange chromatography on a MonoQ column (GE Healthcare) using a 20 mM Tris pH 8/20 mM Tris pH8+ 500 mM NaCl buffer system. Proteins were then reexchanged into HBS for further use.
Surface plasmon resonance. Affinity measurements for peptides bound to I-Ek for 226, 2B4, and 5cc7 TCRs were determined via surface plasmon resonance on a Biacore T100 (GE Healthcare). 10 μM of peptide of interest was added to biotinylated Clip-I-Ek. 1 U thrombin/100 μg MHC was added and incubated at 37°. After 1 hour, pH was lowered by adding sodium cacodylate pH 6.2 to 30 mM and sample was incubated at 37° overnight. Samples were then neutralized with 40 mM HEPES pH 7.2 and stored at 4° until use. pMHC exchanged with the peptide of interest were bound to a Biacore SA chip (GE Healthcare) at a low surface density (100-200 RU) to ensure no recapture of analyte. I-Ek exchanged with a null peptide (MCC K99E) was used as the reference surface. […]

[2] = tested on: 5cc7 T cell blasts; assay type: cell-based, mice; conditions: 5cc7 T cells; peptide presented by I-Ek; read-out: signaling potency (EC50)
Description: Selection of library derived I-Ek peptides for further characterization. Peptides were chosen from the deep sequencing data across a wide range of sequence prevalence for further study via SPR, activity, and structural characterization. Peptides were chosen that were recognized by 1, 2, or all 3 I-E^k reactive TCRs. All peptides were tested for activity with both 2B4 and 5cc7 T cell clones regardless of for which TCR they were initially selected. A subset of peptides was chosen to further characterize via SPR. The 2A peptide that was structurally characterized in FIG. 5A was discovered by manual curation of an I-Ek peptide library. 2A is highly homologous to peptides represented in the deep sequencing data and co-clusters with MCC.
Activity assay for I-Ek-selected peptides. Lymphocytes were isolated from 5cc7 or 2B4 TCR transgenic Rag−/− mice. […] CD69 upregulation was measured using an Accuri C6 flow cytometer with an autosampler (BD) by measuring CD69 MFI in the CD4+ gate. Data was then normalized and EC50s measured via Prism. IL-2 release was measured in technical triplicates via anti-IL-2 Elisa (Ready-setgo mouse IL-2 ELISA kit, eBioscience 88-7024), as recommended by the manufacturer. […] Absorbance was measured via SpectraMax Paradigm (Molecular Devices), with EC50 determined via Graphpad Prism.

Structure (SMILES) | Kd [1] [µM] | EC50 [2] [µM]
CC[C@H](C)[C@H](NC(=O)[C@H](CC(C)C)NC(=O)[C@H](CC(=O)O)NC(=O)[C@H](C)N)C(=O)N[C@@H](C)C(=O)N[C@@H](Cc1ccc(O)cc1)C(=O)N[C@@H](CC(C)C)C(=O)N[C@@H](CCCCN)C(=O)N[C@@H](CCC(N)=O)C(=O)N[C@@H](C)C(=O)N[C@H](C(=O)N[C@@H](CCCCN)C(=O)O)[C@@H](C)O [MCC, reference compound] (H-ADLIAYLKQATK-OH; N-terminus and C-terminus assumed) | 41 | 
CC(C)C[C@H](NC(=O)[C@H](Cc1ccccc1)NC(=O)[C@H](Cc1ccccc1)NC(=O)[C@H](C)NC(=O)[C@@H](NC(=O)CNC(=O)[C@H](CC(N)=O)NC(=O)[C@H](C)N)C(C)C)C(=O)N[C@H](C(=O)N1CCC[C@H]1C(=O)N[C@@H](Cc1ccccc1)C(=O)N[C@@H](CCCCN)C(=O)O)[C@@H](C)O [compound 50] (H-ANGVAFFLTPFK-OH; N-terminus and C-terminus assumed) | 115 | 1.5
